Measured values from patent US20250144067A1, “PERSONALIZED STARVATION THERAPY FOR CANCER” (Faeth Therapeutics, Inc., priority 2021, published 2025).
Where a name gives a salt, the structure may show the parent alone.

What follows are compounds tested on NCI-H292 lung cancer cells (assay: FDA drug screening, complete media vs cholesterol-free media without statin (TABLE 1)). Conditions: Complete minus Cholesterol-free; greater than 0 enhanced anti-cancer activity, about 0 neutral, below 0 antagonist.
Type: cell-based, human
Work on `COc1ccccc1Oc1c(NS(=O)(=O)c2ccc(C(C)(C)C)cc2)nc(-c2ncccn2)nc1OCCO` [Bosentan (hydrate)] yielded a Difference of −0.13. `CN(Cc1cc(Br)cc(Br)c1N)C1CCCCC1` [Bromhexine (hydrochloride)] gave a Difference of −0.09. `O=C(CCCN1CCC(O)(c2ccc(Br)cc2)CC1)c1ccc(F)cc1` [Bromperidol] was tested, and the Difference was −0.13.

Same assay, conditions: Complete minus Cholesterol-free; greater than 0 enhanced anti-cancer activity, about 0 neutral, below 0 antagonists
Work on `O=[N+]([O-])C(Br)(CO)CO` [Bronopol] yielded a Difference of −0.52.

Same assay, conditions: NCI-H292 cells in cholesterol-free media without statin
`O=[N+]([O-])C(Br)(CO)CO` [Bronopol] showed a Cholesterol-free of 1.461.

Same assay, conditions: NCI-H292 cells in complete media
Compound `O=[N+]([O-])C(Br)(CO)CO` [Bronopol] has a Complete of 0.9389.

Same assay, conditions: NCI-H292 cells, FDA drug library screen, cholesterol-free media without statin
In the case of `COc1ccccc1Oc1c(NS(=O)(=O)c2ccc(C(C)(C)C)cc2)nc(-c2ncccn2)nc1OCCO` [Bosentan (hydrate)], the Cholesterol-free was 1.31. Compound `CN(Cc1cc(Br)cc(Br)c1N)C1CCCCC1` [Bromhexine (hydrochloride)] has a Cholesterol-free of 1.344. Work on `O=C(CCCN1CCC(O)(c2ccc(Br)cc2)CC1)c1ccc(F)cc1` [Bromperidol] yielded a Cholesterol-free of 1.177.

Same assay, conditions: NCI-H292 cells, FDA drug library screen, complete media
For `COc1ccccc1Oc1c(NS(=O)(=O)c2ccc(C(C)(C)C)cc2)nc(-c2ncccn2)nc1OCCO` [Bosentan (hydrate)], the Complete was 1.181. For `CN(Cc1cc(Br)cc(Br)c1N)C1CCCCC1` [Bromhexine (hydrochloride)], the Complete was 1.254. `O=C(CCCN1CCC(O)(c2ccc(Br)cc2)CC1)c1ccc(F)cc1` [Bromperidol] was tested, and the Complete was 1.05.

Same assay, conditions: NCI-H292 cells, cholesterol-free media without statin
In the case of `CCNC(=O)CCC/C=C\C[C@@H]1[C@@H](/C=C/[C@@H](O)CCc2ccccc2)[C@H](O)C[C@@H]1O` [Bimatoprost], the Cholesterol-free was 1.545. `O=c1ccc2ccc(OCCCCN3CCN(c4cccc5sccc45)CC3)cc2[nH]1` [Brexpiprazole] was tested, and the Cholesterol-free was 0.9917. With `O=c1[nH]c(=O)n([C@H]2C[C@H](O)[C@@H](CO)O2)cc1/C=C/Br` [Brivudine] the Cholesterol-free was 1.108. `Nc1c(CC(=O)O)cccc1C(=O)c1ccc(Br)cc1` [Bromfenac (sodium hydrate)] was tested, and the Cholesterol-free was 1.074. In the case of `Nc1c(CC(=O)O)cccc1C(=O)c1ccc(Br)cc1` [Bromfenac (sodium)], the Cholesterol-free was 1.333.

Same assay, conditions: NCI-H292 cells, cholesterol-free media without statin, FDA drug library screen
For `OC(CCN1CCCCC1)(c1ccccc1)C1CC2C=CC1C2` (centres unmarked) [Biperiden (Hydrochloride)], the Cholesterol-free was 1.12. `COc1cc(N2CCC(N3CCN(C)CC3)CC2)ccc1Nc1ncc(Cl)c(Nc2ccccc2P(C)(C)=O)n1` [Brigatinib] showed a Cholesterol-free of 0.5531. `Oc1c(Br)cc(Br)c2cccnc12` [Broxyquinoline] gave a Cholesterol-free of 1.044.

Same assay, conditions: NCI-H292 cells, complete media
`CCNC(=O)CCC/C=C\C[C@@H]1[C@@H](/C=C/[C@@H](O)CCc2ccccc2)[C@H](O)C[C@@H]1O` [Bimatoprost] was tested, and the Complete was 1.142. `O=c1ccc2ccc(OCCCCN3CCN(c4cccc5sccc45)CC3)cc2[nH]1` [Brexpiprazole] showed a Complete of 0.6405. `O=c1[nH]c(=O)n([C@H]2C[C@H](O)[C@@H](CO)O2)cc1/C=C/Br` [Brivudine] showed a Complete of 0.7267. For `Nc1c(CC(=O)O)cccc1C(=O)c1ccc(Br)cc1` [Bromfenac (sodium hydrate)], the Complete was 0.716. With `Nc1c(CC(=O)O)cccc1C(=O)c1ccc(Br)cc1` [Bromfenac (sodium)] the Complete was 0.9935.

Same assay, conditions: NCI-H292 cells, complete media, FDA drug library screen
With `OC(CCN1CCCCC1)(c1ccccc1)C1CC2C=CC1C2` (centres unmarked) [Biperiden (Hydrochloride)] the Complete was 1.311. Work on `COc1cc(N2CCC(N3CCN(C)CC3)CC2)ccc1Nc1ncc(Cl)c(Nc2ccccc2P(C)(C)=O)n1` [Brigatinib] yielded a Complete of 0.9482. `Oc1c(Br)cc(Br)c2cccnc12` [Broxyquinoline] gave a Complete of 1.24.

Same assay, conditions: complete vs cholesterol-free media; >0 enhanced anti-cancer activity, about 0 neutral, <0 antagonist
Work on `OC(CCN1CCCCC1)(c1ccccc1)C1CC2C=CC1C2` (centres unmarked) [Biperiden (Hydrochloride)] yielded a Difference of 0.19. `COc1cc(N2CCC(N3CCN(C)CC3)CC2)ccc1Nc1ncc(Cl)c(Nc2ccccc2P(C)(C)=O)n1` [Brigatinib] was tested, and the Difference was 0.40. In the case of `Oc1c(Br)cc(Br)c2cccnc12` [Broxyquinoline], the Difference was 0.20.

Same assay, conditions: complete vs cholesterol-free media; greater than 0 enhanced anti-cancer activity, about 0 neutral, below 0 antagonists
Work on `CCNC(=O)CCC/C=C\C[C@@H]1[C@@H](/C=C/[C@@H](O)CCc2ccccc2)[C@H](O)C[C@@H]1O` [Bimatoprost] yielded a Difference of −0.40. `O=c1ccc2ccc(OCCCCN3CCN(c4cccc5sccc45)CC3)cc2[nH]1` [Brexpiprazole] gave a Difference of −0.35. `O=c1[nH]c(=O)n([C@H]2C[C@H](O)[C@@H](CO)O2)cc1/C=C/Br` [Brivudine] was tested, and the Difference was −0.38. `Nc1c(CC(=O)O)cccc1C(=O)c1ccc(Br)cc1` [Bromfenac (sodium hydrate)] was tested, and the Difference was −0.36. `Nc1c(CC(=O)O)cccc1C(=O)c1ccc(Br)cc1` [Bromfenac (sodium)] showed a Difference of −0.34.

What follows are compounds tested on NCI-H292 lung cancer cells (assay: FDA drug screening, complete media vs cholesterol-free media with simvastatin (TABLE 2)). Conditions: NCI-H292 cells, FDA drug library screen, cholesterol-free media with simvastatin 0.04 μM.
Type: cell-based, human
`OC(CCN1CCCCC1)(c1ccccc1)C1CC2C=CC1C2` (centres unmarked) [Biperiden (Hydrochloride)] was tested, and the “Cholesterol-free media + simvastatin (0.04 μM)” value was 0.8257. For `Nc1c(CC(=O)O)cccc1C(=O)c1ccc(Br)cc1` [Bromfenac (sodium hydrate)], the “Cholesterol-free media + simvastatin (0.04 μM)” value was 1.132. `O=C(CCCN1CCC(O)(c2ccc(Br)cc2)CC1)c1ccc(F)cc1` [Bromperidol] was tested, and the “Cholesterol-free media + simvastatin (0.04 μM)” value was 0.4758. `Oc1c(Br)cc(Br)c2cccnc12` [Broxyquinoline] was tested, and the “Cholesterol-free media + simvastatin (0.04 μM)” value was 1.072.

Same assay, conditions: NCI-H292 cells, FDA drug library screen, complete media
In the case of `OC(CCN1CCCCC1)(c1ccccc1)C1CC2C=CC1C2` (centres unmarked) [Biperiden (Hydrochloride)], the “Complete Media” value was 1.742. In the case of `Nc1c(CC(=O)O)cccc1C(=O)c1ccc(Br)cc1` [Bromfenac (sodium hydrate)], the “Complete Media” value was 1.293. For `O=C(CCCN1CCC(O)(c2ccc(Br)cc2)CC1)c1ccc(F)cc1` [Bromperidol], the “Complete Media” value was 1.318. With `Oc1c(Br)cc(Br)c2cccnc12` [Broxyquinoline] the “Complete Media” value was 1.219.

Same assay, conditions: NCI-H292 cells, FDA library drug in cholesterol-free media with simvastatin 0.04 μM
In the case of `CCNC(=O)CCC/C=C\C[C@@H]1[C@@H](/C=C/[C@@H](O)CCc2ccccc2)[C@H](O)C[C@@H]1O` [Bimatoprost], the “Cholesterol-free media + simvastatin (0.04 μM)” value was 1.43. `CN(Cc1cc(Br)cc(Br)c1N)C1CCCCC1` [Bromhexine (hydrochloride)] was tested, and the “Cholesterol-free media + simvastatin (0.04 μM)” value was 1.081.

Same assay, conditions: NCI-H292 cells, FDA library drug in complete media
`CCNC(=O)CCC/C=C\C[C@@H]1[C@@H](/C=C/[C@@H](O)CCc2ccccc2)[C@H](O)C[C@@H]1O` [Bimatoprost] was tested, and the “Complete Media” value was 0.9569. In the case of `Nc1c(CC(=O)O)cccc1C(=O)c1ccc(Br)cc1` [Bromfenac (sodium)], the “Complete Media” value was 1.029. In the case of `CN(Cc1cc(Br)cc(Br)c1N)C1CCCCC1` [Bromhexine (hydrochloride)], the “Complete Media” value was 0.7932.

Same assay, conditions: NCI-H292 cells, cholesterol-free media with simvastatin 0.04 μM; FDA drug library screen (TABLE 2)
With `COc1ccccc1Oc1c(NS(=O)(=O)c2ccc(C(C)(C)C)cc2)nc(-c2ncccn2)nc1OCCO` [Bosentan (hydrate)] the “Cholesterol-free media + simvastatin (0.04 μM)” value was 1.256.

Same assay, conditions: NCI-H292 cells, cholesterol-free media with simvastatin 0.04 μM; cell growth value in FDA drug screen
With `O=c1ccc2ccc(OCCCCN3CCN(c4cccc5sccc45)CC3)cc2[nH]1` [Brexpiprazole] the “Cholesterol-free media + simvastatin (0.04 μM)” value was 0.8945. `O=c1[nH]c(=O)n([C@H]2C[C@H](O)[C@@H](CO)O2)cc1/C=C/Br` [Brivudine] was tested, and the “Cholesterol-free media + simvastatin (0.04 μM)” value was 1.157. With `O=[N+]([O-])C(Br)(CO)CO` [Bronopol] the “Cholesterol-free media + simvastatin (0.04 μM)” value was 0.8221.

Same assay, conditions: NCI-H292 cells, complete media; FDA drug library screen (TABLE 2)
`COc1ccccc1Oc1c(NS(=O)(=O)c2ccc(C(C)(C)C)cc2)nc(-c2ncccn2)nc1OCCO` [Bosentan (hydrate)] was tested, and the “Complete Media” value was 1.269.

Same assay, conditions: NCI-H292 cells, complete media; cell growth value in FDA drug screen
With `O=c1ccc2ccc(OCCCCN3CCN(c4cccc5sccc45)CC3)cc2[nH]1` [Brexpiprazole] the “Complete Media” value was 1.024. In the case of `O=c1[nH]c(=O)n([C@H]2C[C@H](O)[C@@H](CO)O2)cc1/C=C/Br` [Brivudine], the “Complete Media” value was 1.26. In the case of `O=[N+]([O-])C(Br)(CO)CO` [Bronopol], the “Complete Media” value was 0.9082.

Same assay, conditions: NCI-H292 cells, drug in cholesterol-free media with simvastatin 0.04 μM
`COc1cc(N2CCC(N3CCN(C)CC3)CC2)ccc1Nc1ncc(Cl)c(Nc2ccccc2P(C)(C)=O)n1` [Brigatinib] was tested, and the “Cholesterol-free media + simvastatin (0.04 μM)” value was 0.8361.

Same assay, conditions: NCI-H292 cells, drug in complete media
With `COc1cc(N2CCC(N3CCN(C)CC3)CC2)ccc1Nc1ncc(Cl)c(Nc2ccccc2P(C)(C)=O)n1` [Brigatinib] the “Complete Media” value was 0.6309.

Same assay, conditions: complete media minus cholesterol-free media + simvastatin (0.04 μM); >0 enhanced anti-cancer activity, about 0 neutral, <0 antagonist
For `COc1ccccc1Oc1c(NS(=O)(=O)c2ccc(C(C)(C)C)cc2)nc(-c2ncccn2)nc1OCCO` [Bosentan (hydrate)], the Difference was 0.01.

Same assay, conditions: complete media minus cholesterol-free media + simvastatin; >0 enhanced anti-cancer activity, about 0 neutral, <0 antagonist
Work on `OC(CCN1CCCCC1)(c1ccccc1)C1CC2C=CC1C2` (centres unmarked) [Biperiden (Hydrochloride)] yielded a Difference of 0.92. `O=c1ccc2ccc(OCCCCN3CCN(c4cccc5sccc45)CC3)cc2[nH]1` [Brexpiprazole] showed a Difference of 0.13. With `O=c1[nH]c(=O)n([C@H]2C[C@H](O)[C@@H](CO)O2)cc1/C=C/Br` [Brivudine] the Difference was 0.10. Work on `Nc1c(CC(=O)O)cccc1C(=O)c1ccc(Br)cc1` [Bromfenac (sodium hydrate)] yielded a Difference of 0.16. Work on `O=C(CCCN1CCC(O)(c2ccc(Br)cc2)CC1)c1ccc(F)cc1` [Bromperidol] yielded a Difference of 0.84. In the case of `O=[N+]([O-])C(Br)(CO)CO` [Bronopol], the Difference was 0.09. With `Oc1c(Br)cc(Br)c2cccnc12` [Broxyquinoline] the Difference was 0.15.

Same assay, conditions: complete media vs cholesterol-free media + simvastatin (0.04 μM); >0 enhanced anti-cancer activity, about 0 neutral, <0 antagonist
`CCNC(=O)CCC/C=C\C[C@@H]1[C@@H](/C=C/[C@@H](O)CCc2ccccc2)[C@H](O)C[C@@H]1O` [Bimatoprost] gave a Difference of −0.47. Compound `COc1cc(N2CCC(N3CCN(C)CC3)CC2)ccc1Nc1ncc(Cl)c(Nc2ccccc2P(C)(C)=O)n1` [Brigatinib] has a Difference of −0.21. In the case of `Nc1c(CC(=O)O)cccc1C(=O)c1ccc(Br)cc1` [Bromfenac (sodium)], the Difference was −0.59. For `CN(Cc1cc(Br)cc(Br)c1N)C1CCCCC1` [Bromhexine (hydrochloride)], the Difference was −0.29.
